Like-named read-outs stand apart in the source and are kept apart here.
Tests used:
[1] = system: T-Rex 293 cell line SC cells having increased expression of progesterone receptor isoform B protein; test: Cellular growth inhibition, T-Rex 293 SC cells with increased progesterone receptor isoform B expression (doxycycline), CellTiter-Glo; assay type: cell-based; settings: progesterone receptor isoform B induced with 10 ng/mL doxycycline, 72 hours
Experimental: (§1) The following types of cells were prepared for this experiment: (i) a T-Rex 293 cell line having increased expression of progesterone receptor isoform B protein due to exposure to doxycycline and (ii) a T-Rex 293 cell line lacking increased expression of progesterone receptor isoform B protein. Ability of the test compounds to inhibit proliferation of the foregoing cell types was evaluated according to the procedures set forth below.
(§2) The doxycycline-inducible progesterone receptor isoform B protein expressing cell line was established using the following protocol: T-Rex 293 cells were purchased from Invitrogen (Cat #R71007) and transfected using Lipofectamine 2000 with the wild-type progesterone receptor B protein sequence cloned into the pcDNA4/TO vector. Transfected cells were selected using 400 μg/mL Zeocin (Invitrogen Cat #R25001). Following selection, single clones were raised and maintained in Dulbecco's Modified Eagle Medium (DMEM) supplemented with 10% w/w Tetracycline-free fetal bovine serum (FBS) and 250 μg/mL Zeocin. Clones were analyzed for expression of progesterone receptor isoform B protein in the presence and absence of 10 ng/ml doxycycline (Sigma Cat #D9891), and a single doxycycline-inducible clone (hereinafter “SC”) was selected for use in downstream assays.
(§3) The SC cells were seeded on poly-D-lysine coated, black clear-bottom 384-well plates at 2500/well, in 25 μL Phenol Red Free Dulbecco's Modified Eagle Medium (DMEM) supplemented with 10% w/w charcoal-dextran treated fetal bovine serum (FBS) and 1% w/w pen-strep, with or without 10 ng/mL doxycycline. Pen-Strep is a commercially available mixture of penicillin G and streptomycin, which is used in mammalian cell culture media to prevent bacterial contamination. Phenol Red Free Dulbecco's Modified Eagle Medium (DMEM) supplemented with 10% w/w charcoal-dextran treated fetal bovine serum (FBS) and 1% w/w pen-strep, with or without 10 ng/mL doxycycline is herein referred to as Treatment Medium. Following seeding of cells in the plates, the plates were spun at 300×g for 30 seconds, then equilibrated to room temperature for 30 minutes, and then deposited in a humidified tissue culture incubator maintained at 37° C. with 5% CO2.
(§4) At 24 hours after seeding of the cells, dilutions of test compound were prepared in DMSO and dissolved in Treatment Medium, to achieve a final DMSO concentration of 0.5% w/w, thereby providing the Test Compound Solution. A 25 μL aliquot of the Test Compound Solution was added to cells in the well plates. An equal volume of a solution containing DMSO and Treatment Medium was used as a negative control. Following treatment of cells with Test Compound Solution or said equal volume of a solution containing DMSO and Treatment Medium, the plates were spun at 300×g for 30 seconds, and then left in an incubator for 72 hours.
(§5) At the end of the treatment duration, cell viability was quantified with CellTiter-Glo 2.0 reagent (Promega Cat #G9243). For this purpose, plates were equilibrated to room temperature for 30 minutes, and then 25 μL of CellTiter-Glo 2.0 reagent was added to cells in the plate wells. Plates were then agitated on a shaker for two minutes at 500 rpm and subsequently incubated at room temperature for 10 minutes. Following incubation, the plates were spun at 3000×g for 30 seconds, then sealed with an optical adhesive cover, and luminescence readings were measured with an EnVision Plate Reader (Perkin Elmer).
(§6) Data was normalized using zero luminescence for baseline. A four-parameter non-linear regression curve fit was applied to dose-response data in GraphPad Prism data analysis software to determine the half-maximal growth inhibitory concentration (GI50) for each test compound.

[2] = system: T-Rex 293 cell line SC3 cells lacking increased expression of androgen receptor protein; test: Cellular growth inhibition, T-Rex 293 SC3 cells lacking increased androgen receptor expression (no doxycycline), CellTiter-Glo; assay type: cell-based; settings: T-Rex 293 SC3 cells lacking increased androgen receptor expression (not exposed to doxycycline), 72 hours, CellTiter-Glo; read-out: GI50
How it was run: (§7)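 SC3, a T-Rex 293 clone with doxycycline-inducible wild-type androgen receptor, was seeded in phenol red-free DMEM with 10% charcoal-dextran FBS, with or without 10 ng/mL doxycycline. Compound added at 24 h (0.5% DMSO) for 72 h at 37° C. CellTiter-Glo 2.0 luminescence; GI50 from four-parameter fit.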

[3] = system: T47D cells; test: Cellular growth inhibition assay for T47D cells, CellTiter-Glo; assay type: cell-based, human; settings: 72 hours treatment, CellTiter-Glo 2.0
How it was run: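 Cells are plated at 3000/well and allowed 24 h before treatment. Test compound in medium containing 0.5% DMSO is then added, with DMSO-only wells as negative control, and plates are incubated 72 h at 37 °C. ATP luminescence (CellTiter-Glo 2.0) is then fitted to four parameters to derive GI50.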

[4] = system: T-Rex 293 cell line SC3 cells having increased expression of androgen receptor protein; test: Cellular growth inhibition, T-Rex 293 SC3 cells with increased androgen receptor expression (doxycycline), CellTiter-Glo; assay type: cell-based; settings: T-Rex 293 SC3 cells with increased androgen receptor expression (exposed to 10 ng/mL doxycycline), 72 hours, CellTiter-Glo; read-out: GI50
How it was run: as §7

[5] = system: VCaP cells; test: Cellular growth inhibition assay for VCaP cells, CellTiter-Glo; assay type: cell-based, human; settings: VCaP cells, 72 hours, CellTiter-Glo, read-out: GI50
How it was run: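 GI50 values come from four-parameter curve fits of luminescence data normalized to a zero baseline. Compound, in medium with 0.5% DMSO, was added one day after plating and left for 72 h before CellTiter-Glo 2.0 addition.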

[6] = system: T-Rex 293 cell line SC cells lacking increased expression of progesterone receptor isoform B protein; test: Cellular growth inhibition, T-Rex 293 SC cells lacking increased progesterone receptor isoform B expression (no doxycycline), CellTiter-Glo; assay type: cell-based; settings: T-Rex 293 SC cells not exposed to doxycycline, 72 hours
Experimental: as §1, §2, §3, §4, §5, §6

[7] = target: BRD4-BD1 (Homo sapiens (Human), UniProt O60885); test: bromoKdELECT assay for binding affinity to BRD4-BD1; settings: 11-point 3-fold dilution
Experimental: (§8) Compounds were tested using a bromoKdELECT assay. T7 phage strains displaying bromodomains were grown in parallel in 24-well blocks in an E. coli host derived from the BL21 strain. E. coli were grown to log-phase and infected with T7 phage from a frozen stock (multiplicity of infection=0.4) and incubated with shaking at 32° C. until lysis (90-150 minutes). The lysates were centrifuged (5,000×g) and filtered (0.2 μm) to remove cell debris. Streptavidin-coated magnetic beads were treated with biotinylated small molecule or acetylated peptide ligands for 30 minutes at room temperature to generate affinity resins for bromodomain assays. The liganded beads were blocked with excess biotin and washed with blocking buffer (SeaBlock (Pierce), 1% BSA, 0.05% Tween 20, 1 mM DTT) to remove unbound ligand and to reduce nonspecific phage binding. Binding reactions were assembled by combining bromodomains, liganded affinity beads, and test compounds in 1× binding buffer (17% SeaBlock, 0.33×PBS, 0.04% Tween 20, 0.02% BSA, 0.004% Sodium azide, 7.4 mM DTT). Test compounds were prepared as 1000× stocks in 100% DMSO. Kds were determined using an 11-point 3-fold compound dilution series with one DMSO control point. All compounds for Kd measurements are distributed by acoustic transfer (non-contact dispensing) in 100% DMSO. The compounds were then diluted directly into the assays such that the final concentration of DMSO was 0.09%. All reactions performed in polypropylene 384-well plates. Each was a final volume of 0.02 ml. The assay plates were incubated at room temperature with shaking for 1 hour and the affinity beads were washed with wash buffer (1×PBS, 0.05% Tween 20). The beads were then resuspended in elution buffer (1×PBS, 0.05% Tween 20, 2 μM non-biotinylated affinity ligand) and incubated at room temperature with shaking for 30 minutes. The bromodomain concentration in the eluates was measured by qPCR.

[8] = target: BRD4-BD2 (Homo sapiens (Human), UniProt O60885); test: bromoKdELECT assay for binding affinity to BRD4-BD2; settings: 11-point 3-fold dilution
Experimental: as §8

CCS(=O)(=O)Nc1ccc(Oc2cccc(OCCOCCOCCOC3CCN(c4ccc(C(=O)N[C@H]5CC[C@H](Oc6ccc(C#N)c(Cl)c6)CC5)nn4)CC3)c2)c(-c2cn(C)c(=O)c3[nH]ccc23)c1 [I-2, N-[4-(3-chloro-4-cyano-phenoxy)cyclohexyl]-6-[4-[2-[2-[2-[3-[4-(ethylsulfonylamino)-2-(6-methyl-7-oxo-1H-pyrrolo[2,3-c]pyridin-4-yl)phenoxy]phenoxy]ethoxy]ethoxy]ethoxy]-1-piperidyl]pyridazine-3-carboxamide]
GI50 [1]: < 500 nM | GI50 [2]: 500 to 1500 nM | GI50 ([3]; Homo sapiens): < 500 nM | GI50 [4]: < 500 nM | GI50 ([5]; Homo sapiens): < 500 nM | GI50 [6]: < 500 nM

CCS(=O)(=O)Nc1ccc(Oc2cccc(N3CC(OC4CCN(c5ccc(C(=O)N[C@H]6CC[C@H](Oc7ccc(C#N)c(Cl)c7)CC6)nn5)CC4)C3)c2F)c(-c2cn(C)c(=O)c3[nH]ccc23)c1 [I-25]
GI50 [1]: < 500 nM | GI50 [2]: > 3000 nM | GI50 ([3]; Homo sapiens): < 500 nM | GI50 [4]: < 500 nM | GI50 ([5]; Homo sapiens): < 500 nM | GI50 [6]: < 500 nM

CCS(=O)(=O)c1ccc(Oc2cccc(OCCN3CCN(c4ccc(C(=O)NC5CCC(Oc6ccc(C#N)c(Cl)c6)CC5)nn4)CC3)c2F)c(-c2cn(C)c(=O)c3[nH]ccc23)c1 (centres unmarked) [I-40, N-[4-(3-chloro-4-cyano-phenoxy)cyclohexyl]-6-[4-[2-[3-[4-ethylsulfonyl-2-(6-methyl-7-oxo-1H-pyrrolo[2,3-c]pyridin-4-yl)phenoxy]-2-fluoro-phenoxy]ethyl]piperazin-1-yl]pyridazine-3-carboxamide]
GI50 [1]: < 500 nM | GI50 [2]: < 500 nM | GI50 ([3]; Homo sapiens): < 500 nM | GI50 [4]: < 500 nM | GI50 ([5]; Homo sapiens): < 500 nM | GI50 [6]: < 500 nM

CCS(=O)(=O)c1ccc(Oc2cccc(CCCCN3CC4(C3)CN(c3ccc(C(=O)N[C@H]5CC[C@H](Oc6ccc(C#N)c(Cl)c6)CC5)nn3)C4)c2F)c(-c2cn(C)c(=O)c3[nH]ccc23)c1 [I-47]
GI50 [1]: < 500 nM | GI50 [2]: < 500 nM | GI50 ([3]; Homo sapiens): < 500 nM | GI50 [4]: < 500 nM | GI50 ([5]; Homo sapiens): < 500 nM | GI50 [6]: < 500 nM

Cn1cc(-c2cc(C(C)(C)O)ccc2Oc2ccc(OCC3CCN(c4ccc(C(=O)N[C@H]5CC[C@H](Oc6ccc(C#N)c(Cl)c6)CC5)nn4)CC3)cc2)c2cc[nH]c2c1=O [I-96]
GI50 [1]: < 500 nM | GI50 [2]: < 500 nM | GI50 [3]: < 500 nM | GI50 [4]: < 500 nM | GI50 [5]: < 500 nM | GI50 [6]: < 500 nM

Cn1cc(-c2cc(C(C)(C)O)ccc2Oc2ccc(OCCN3CCN(c4ccc(C(=O)N[C@H]5CC[C@H](Oc6ccc(C#N)c(Cl)c6)CC5)nn4)CC3)cc2)c2cc[nH]c2c1=O [I-97]
GI50 [1]: < 500 nM | GI50 [2]: < 500 nM | GI50 ([3]; Homo sapiens): < 500 nM | GI50 [4]: < 500 nM | GI50 ([5]; Homo sapiens): < 500 nM | GI50 [6]: < 500 nM

CN(CCOc1ccc(Oc2ccc(C(C)(C)O)cc2-c2cn(C)c(=O)c3[nH]ccc23)cc1)c1ccc(C(=O)N[C@H]2CC[C@H](Oc3ccc(C#N)c(Cl)c3)CC2)nn1 [I-98]
GI50 [1]: < 500 nM | GI50 [2]: < 500 nM | GI50 [4]: < 500 nM | GI50 [5]: < 500 nM | GI50 [6]: < 500 nM

CN(CCCOc1ccc(Oc2ccc(C(C)(C)O)cc2-c2cn(C)c(=O)c3[nH]ccc23)cc1)c1ccc(C(=O)N[C@H]2CC[C@H](Oc3ccc(C#N)c(Cl)c3)CC2)nn1 [I-99]
GI50 [1]: < 500 nM | GI50 [2]: < 500 nM | GI50 [3]: 500 to 1500 nM | GI50 [4]: < 500 nM | GI50 [5]: < 500 nM | GI50 [6]: 500 to 1500 nM

CCS(=O)(=O)c1ccc(Oc2ccc(CCC3CCN(c4ccc(C(=O)N[C@H]5CC[C@H](Oc6ccc(C#N)c(Cl)c6)CC5)nn4)CC3)nc2)c(-c2cn(C)c(=O)c3[nH]ccc23)c1 [I-219]
Kd [7]: 50 to 500 nM | Kd [8]: 50 to 500 nM | GI50 [2]: < 500 nM | GI50 [3]: < 500 nM | GI50 [4]: < 500 nM | GI50 [5]: < 500 nM

From patent US20250388575A1, “HETEROBIFUNCTIONAL COMPOUNDS AND METHODS OF TREATING DISEASE” (Halda Therapeutics OpCo, Inc., priority 2022, published 2025)
